Reference: US8192962B2, “Processes for detecting toxic substances” (Daikin Industries, Ltd., priority 2001, dated 2012)

Tested on: Genes belonging to other category
Assay: DNA chip mRNA expression in yeast, genes belonging to other category (Table 9)
Format: cell-based, Saccharomyces cerevisiae S288C
Experimental: Yeast (Saccharomyces cerevisiae S288C (α SUC2mal mel gap2 CUP1)) were incubated at 25° C. on YPD medium (yeast extract 1%, polypepton 2%, glucose 2%). One of toxic chemical substances was added to the cells at logarithmic growth phase, and the cells were further incubated for two hours. Cells were cultured without any chemical substance in the same condition, and were used as control. Concentrations of the chemical substances were defined to inhibit the growth of the yeast but not lead to death.
After completion of the incubation, the culture was centrifuged to collect the cells. To the cells, sodium acetate buffer (50 mM sodium acetate, 10 mM EDTA, 1% SDS) was added, and the mixture was shaken at 65° C. for five minutes, followed by returning to room temperature, and obtaining the supernatant, of which the procedures were repeated two times. To the supernatant, ½ amount of a solution of phenol/chloroform was added, and the mixture was centrifuged to give a supernatant, which was added with an equal amount of chloroform, and the mixture was centrifuged to give a supernatant. To the supernatant, an equal amount of isopropanol containing 0.3 M sodium acetate was added, and the mixture was allowed to stand at room temperature for 30 minutes, after which the mixture was centrifuged to give a sediment of the whole RNAs. Seventy % ethanol was added to the sediment, and the mixture was again centrifuged to give a sediment, which was then dried and dissolved in water. mRNA was isolated from the whole RNAs as followings. In view of the fact that a poly A chain is attached to the 3′ terminus of mRNA, a polynucleotide having a poly T structure which was immobilized on the surface of latex beads was used to trap the mRNA, and then the mRNA was washed and eluted with spine column (Oligotex-dT30<Super>mRNA Purification Kit, Takara). Reverse transcription of the mRNA was conducted with a reverse transcriptase (Super Script II Reverse Transcriptase; catalogue No. 18064-014, GibcoBRL) using fluorescence-labeled nucleotides to give cDNAs that were introduced with Cy3-dUTP or Cy5-dUTP during the reverse transcription.
The labeled cDNAs were dissolved in TE buffer (10mM Tris-HCl/1 mM EDTA, pH8.0), and the solution was dropped on the DNA chip containing the whole genes of yeast (DNA Chip Research Inc. Japan) so that the cDNAs were hybridized on the DNA chip at 65° C. for over 12 hours. The fluoresces intensity of the DNA chip was read with a scanner, and the ratio relative to the fluorescence intensity resulting from the absence of chemical substance was estimated as the following, which is shown in Tables 1 to 9: […]

N#Cc1c(Cl)c(Cl)c(Cl)c(C#N)c1Cl [(9), 2,4,5,6-tetrachloro-1,3-benzenedicarbonitrile]
The level of expressed mRNA in the presence of chemical substance/The level of expressed mRNA in the absence of chemical substance (yeast gene YER009W): 0.7
The level of expressed mRNA in the presence of chemical substance/The level of expressed mRNA in the absence of chemical substance (yeast gene YER012W): 6.7
The level of expressed mRNA in the presence of chemical substance/The level of expressed mRNA in the absence of chemical substance (yeast gene YER029C): 1.4
The level of expressed mRNA in the presence of chemical substance/The level of expressed mRNA in the absence of chemical substance (yeast gene YER039C): 1.2
The level of expressed mRNA in the presence of chemical substance/The level of expressed mRNA in the absence of chemical substance (yeast gene YER094C): 2.3
The level of expressed mRNA in the presence of chemical substance/The level of expressed mRNA in the absence of chemical substance (yeast gene YER098W): 2.8
The level of expressed mRNA in the presence of chemical substance/The level of expressed mRNA in the absence of chemical substance (yeast gene YER107C): 0.4
The level of expressed mRNA in the presence of chemical substance/The level of expressed mRNA in the absence of chemical substance (yeast gene YER130C): 0.5
The level of expressed mRNA in the presence of chemical substance/The level of expressed mRNA in the absence of chemical substance (yeast gene YER136W): 1.4
The level of expressed mRNA in the presence of chemical substance/The level of expressed mRNA in the absence of chemical substance (yeast gene YER177W): 1.8
The level of expressed mRNA in the presence of chemical substance/The level of expressed mRNA in the absence of chemical substance (yeast gene YER184C): 4.6
The level of expressed mRNA in the presence of chemical substance/The level of expressed mRNA in the absence of chemical substance (yeast gene YFL022C): 0.5
The level of expressed mRNA in the presence of chemical substance/The level of expressed mRNA in the absence of chemical substance (yeast gene YFL028C): 2.7
The level of expressed mRNA in the presence of chemical substance/The level of expressed mRNA in the absence of chemical substance (yeast gene YFL038C): 2.1
The level of expressed mRNA in the presence of chemical substance/The level of expressed mRNA in the absence of chemical substance (yeast gene YFL043C): 2.2
The level of expressed mRNA in the presence of chemical substance/The level of expressed mRNA in the absence of chemical substance (yeast gene YFR050C): 3.1
The level of expressed mRNA in the presence of chemical substance/The level of expressed mRNA in the absence of chemical substance (yeast gene YGL011C): 2.0
The level of expressed mRNA in the presence of chemical substance/The level of expressed mRNA in the absence of chemical substance (yeast gene YGL048C): 2.4
The level of expressed mRNA in the presence of chemical substance/The level of expressed mRNA in the absence of chemical substance (yeast gene YGL158W): −0.4
The level of expressed mRNA in the presence of chemical substance/The level of expressed mRNA in the absence of chemical substance (yeast gene YGL208W): 1.4
The level of expressed mRNA in the presence of chemical substance/The level of expressed mRNA in the absence of chemical substance (yeast gene YGL229C): 1.8
The level of expressed mRNA in the presence of chemical substance/The level of expressed mRNA in the absence of chemical substance (yeast gene YGR120C): 0.3
The level of expressed mRNA in the presence of chemical substance/The level of expressed mRNA in the absence of chemical substance (yeast gene YGR131W): 1.9
The level of expressed mRNA in the presence of chemical substance/The level of expressed mRNA in the absence of chemical substance (yeast gene YGR136W): 2.1
The level of expressed mRNA in the presence of chemical substance/The level of expressed mRNA in the absence of chemical substance (yeast gene YGR189C): 0.3
The level of expressed mRNA in the presence of chemical substance/The level of expressed mRNA in the absence of chemical substance (yeast gene YGR213C): 7.5
The level of expressed mRNA in the presence of chemical substance/The level of expressed mRNA in the absence of chemical substance (yeast gene YGR257C): 1.5
The level of expressed mRNA in the presence of chemical substance/The level of expressed mRNA in the absence of chemical substance (yeast gene YHL024W): 2.1
The level of expressed mRNA in the presence of chemical substance/The level of expressed mRNA in the absence of chemical substance (yeast gene YHR004C): 1.1
The level of expressed mRNA in the presence of chemical substance/The level of expressed mRNA in the absence of chemical substance (yeast gene YHR012W): 4.9
The level of expressed mRNA in the presence of chemical substance/The level of expressed mRNA in the absence of chemical substance (yeast gene YHR071W): 1.0
The level of expressed mRNA in the presence of chemical substance/The level of expressed mRNA in the absence of chemical substance (yeast gene YHR109W): 2.4
The level of expressed mRNA in the presence of chemical substance/The level of expressed mRNA in the absence of chemical substance (yeast gene YHR124W): 3.0
The level of expressed mRNA in the presence of chemical substance/The level of expressed mRNA in the absence of chemical substance (yeast gene YHR139C): 107.2
The level of expressed mRNA in the presence of chemical substance/The level of expressed mRNA in the absence of chemical substance (yeast gene YHR142W): 0.4
The level of expressed mRNA in the presence of chemical substance/The level of expressed mRNA in the absence of chemical substance (yeast gene YHR160C): 2.3
The level of expressed mRNA in the presence of chemical substance/The level of expressed mRNA in the absence of chemical substance (yeast gene YHR163W): 1.4
The level of expressed mRNA in the presence of chemical substance/The level of expressed mRNA in the absence of chemical substance (yeast gene YHR171W): 2.1
The level of expressed mRNA in the presence of chemical substance/The level of expressed mRNA in the absence of chemical substance (yeast gene YIL123W): 0.1
The level of expressed mRNA in the presence of chemical substance/The level of expressed mRNA in the absence of chemical substance (yeast gene YIL140W): 0.7
The level of expressed mRNA in the presence of chemical substance/The level of expressed mRNA in the absence of chemical substance (yeast gene YIR018W): 4.0
The level of expressed mRNA in the presence of chemical substance/The level of expressed mRNA in the absence of chemical substance (yeast gene YJL073W): 1.7
The level of expressed mRNA in the presence of chemical substance/The level of expressed mRNA in the absence of chemical substance (yeast gene YJL089W): 1.6
The level of expressed mRNA in the presence of chemical substance/The level of expressed mRNA in the absence of chemical substance (yeast gene YJL113W): 1.3
The level of expressed mRNA in the presence of chemical substance/The level of expressed mRNA in the absence of chemical substance (yeast gene YJL116C): 2.4
The level of expressed mRNA in the presence of chemical substance/The level of expressed mRNA in the absence of chemical substance (yeast gene YJL146W): 1.0
The level of expressed mRNA in the presence of chemical substance/The level of expressed mRNA in the absence of chemical substance (yeast gene YJR004C): 0.3
The level of expressed mRNA in the presence of chemical substance/The level of expressed mRNA in the absence of chemical substance (yeast gene YJR036C): 1.4
The level of expressed mRNA in the presence of chemical substance/The level of expressed mRNA in the absence of chemical substance (yeast gene YJR058C): 1.9
The level of expressed mRNA in the presence of chemical substance/The level of expressed mRNA in the absence of chemical substance (yeast gene YJR086W): 1.4
